SMILES strings stand for the structures. Structures can show the parent of a compound that is named as a salt. Bounds are passed on as bounds.

As usually defined, the EC50 is the midpoint of the concentration-response curve.

Sequence of Btk enzyme (His-Btk) (Q06187 whole entry): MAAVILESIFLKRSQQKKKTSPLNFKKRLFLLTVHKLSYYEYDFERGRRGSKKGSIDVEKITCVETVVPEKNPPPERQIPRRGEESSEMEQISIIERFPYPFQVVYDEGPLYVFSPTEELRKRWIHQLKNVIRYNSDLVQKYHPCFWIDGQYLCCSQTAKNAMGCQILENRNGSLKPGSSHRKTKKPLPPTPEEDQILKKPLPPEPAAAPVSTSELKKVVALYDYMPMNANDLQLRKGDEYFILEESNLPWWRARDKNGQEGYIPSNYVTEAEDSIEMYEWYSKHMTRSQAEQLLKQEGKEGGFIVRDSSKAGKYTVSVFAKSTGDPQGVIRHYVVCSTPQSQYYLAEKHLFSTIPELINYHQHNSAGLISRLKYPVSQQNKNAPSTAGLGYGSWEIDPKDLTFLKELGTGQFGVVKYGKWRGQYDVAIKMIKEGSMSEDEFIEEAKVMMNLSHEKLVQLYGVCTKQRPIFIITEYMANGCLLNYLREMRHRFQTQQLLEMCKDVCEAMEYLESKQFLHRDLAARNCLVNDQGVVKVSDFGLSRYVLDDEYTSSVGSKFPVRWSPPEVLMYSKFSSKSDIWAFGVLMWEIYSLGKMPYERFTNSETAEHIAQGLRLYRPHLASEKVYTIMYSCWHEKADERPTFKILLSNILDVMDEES

One assay has as its target Btk enzyme (His-Btk) (Homo sapiens (Human), UniProt Q06187). Put plainly: Btk enzyme activity, IMAP fluorescence polarization assay (Assay Method A).
Conditions: not given
With `COCCC(=O)N1CCC2(CC1)CC2c1nc(-c2ccc(C(=O)Nc3ccccn3)cc2)c2c(N)nccn12` (stereo not shown) [Example 151, 4-(8-amino-3-(6-(3-methoxypropanoyl)-6-azaspiro[2.5]octan-1-yl)imidazo[1,5-a]pyrazin-1-yl)-N-(pyridin-2-yl)benzamide], the EC50 lay within 100 to 1000 nM.
The same measure, in the same setting: the same measure for `N#Cc1ccnc(NC(=O)c2ccc(-c3nc(N4CCC4)n4ccnc(N)c34)cc2)c1` [Example 209, 4-(8-amino-3-(azetidin-1-yl)imidazo[1,5-a]pyrazin-1-yl)-N-(4-cyanopyridin-2-yl)benzamide]: 100 to 1000 nM; for `CC(C)(F)C(=O)N1CCC[C@@H](n2nc(-c3ccc(C(=O)Nc4cc(C(F)(F)F)ccn4)cc3)c3c(N)ncnc32)C1` [Example 270, (R)-4-(4-amino-1-(1-(2-fluoro-2-methylpropanoyl)piperidin-3-yl)-1H-pyrazolo[3,4-d]pyrimidin-3-yl)-N-(4-(trifluoromethyl)pyridin-2-yl)benzamide]: 10 to 100 nM.
Take `CCN(CC)c1nc(-c2ccc(C(=O)Nc3cc(C#N)ccn3)cc2)c2c(N)nccn12` [Example 215, 4-(8-amino-3-(diethylamino)imidazo[1,5-a]pyrazin-1-yl)-N-(4-cyanopyridin-2-yl)benzamide]: the EC50 is 10 to 100 nM.
As to `COCCOCCOCCOCCOCCOCCOCCOCCC(=O)N1CCC[C@@H](c2nc(-c3ccc(C(=O)Nc4cc(C(F)(F)F)ccn4)cc3)c3c(N)nccn23)C1` [Example 80, (R)-4-(3-(1-2,5,8,11,14,17,20,23-octaoxahexacosanepiperidin-3-yl)-8-aminoimidazo[1,5-a]pyrazin-1-yl)-N-(4-(trifluoromethyl)pyridin-2-yl)benzamide], the EC50 was under 10 nM.
Regarding `Nc1nccn2c(N3CCCC(C(=O)N4CCOCC4)C3)nc(-c3ccc(C(=O)Nc4ccccn4)cc3)c12` (stereo not shown) [Example 229, 4-(8-amino-3-(3-(morpholine-4-carbonyl)piperidin-1-yl)imidazo[1,5-a]pyrazin-1-yl)-N-(pyridin-2-yl)benzamide, TFA salt], the EC50 lay in the range of 10 to 100 nM.
In turn, `C[C@@H]1CC[C@@H](c2nc(-c3ccc(C(=O)Nc4cc(C(F)(F)F)ccn4)cc3)c3c(N)nccn23)CN1C(=O)C1CCCO1` (relative stereo) [Example 185, 4-(8-amino-3-((trans)-6-methyl-1-(tetrahydrofuran-2-carbonyl)piperidin-3-yl)imidazo[1,5-a]pyrazin-1-yl)-N-(4-(trifluoromethyl)pyridin-2-yl)benzamide, TFA salt] displayed an EC50 of 10 to 100 nM.
The same measure, in the same setting: the same measure for `CC(C)(C)NC(=O)C1CCCN(c2nc(-c3ccc(C(=O)Nc4ccccn4)cc3)c3c(N)nccn23)C1` (stereo not shown) [Example 228, 1-(8-amino-1-(4-(pyridin-2-ylcarbamoyl)phenyl)imidazo[1,5-a]pyrazin-3-yl)-N-tert-butylpiperidine-3-carboxamide, TFA salt]: 10 to 100 nM; for `CCOC(=O)c1cnc(N)c2c(-c3ccc(C(=O)Nc4cc(C(F)(F)F)ccn4)cc3)nc([C@@H]3CCCN(C(=O)C4(C)COC4)C3)n12` [Example 299, (R)-ethyl 8-amino-3-(1-(3-methyloxetane-3-carbonyl)piperidin-3-yl)-1-(4-(4-(trifluoromethyl)pyridine-2-ylcarbamoyl)phenyl)imidazo[1,5-a]pyrazine-5-carboxylate]: under 10 nM.
Same read-out and setting: the same measure for `CC(C)(CO)C(=O)N1CCC[C@@H](c2nc(-c3ccc(C(=O)Nc4cc(C(F)(F)F)ccn4)cc3)c3c(N)nccn23)C1` [Example 78, (R)-4-(8-amino-3-(1-(3-hydroxy-2,2-dimethylpropanoyl)piperidin-3-yl)imidazo[1,5-a]pyrazin-1-yl)-N-(4-(trifluoromethyl)pyridin-2-yl)benzamide]: under 10 nM.
Compound `Nc1nccn2c([C@@H]3CCCN(C(=O)C4CC4)C3)nc(-c3ccc(C(=O)Nc4ccccn4)cc3)c12` [Example 52, (R)-4-(8-amino-3-(1-(cyclopropanecarbonyl)piperidin-3-yl)imidazo[1,5-a]pyrazin-1-yl)-N-(pyridin-2-yl)benzamide] had an EC50 of under 10 nM.
`[2H]C([2H])([2H])c1cnc(N)c2c(-c3ccc(C(=O)Nc4cc(C(F)(F)F)ccn4)cc3)nc([C@@H]3CCCN(C(=O)C4(C)COC4)C3)n12` [Example 317, (R)-4-(8-amino-5-deuteromethyl-3-(1-(3-methyloxetane-3-carbonyl)piperidin-3-yl)imidazo[1,5-a]pyrazin-1-yl)-N-(4-(trifluoromethyl)pyridin-2-yl)benzamide] came in with an EC50 of under 10 nM.

Still in this assay, the particulars now being: read-out: EC50 Btk activity values - Assay Method A; IMAP-FP, 60 min pre-incubation, 5 μM ATP; class 100-1000 is given as ≧100 nM-<1 μM.
On to `CC1(C(=O)N2CCC[C@@H](c3nc(-c4ccc(C(=O)Nc5cc(C(F)(F)F)ccn5)cc4)c4c(N)ncc(-c5ccco5)n34)C2)COC1` [Example 311, (R)-4-(8-amino-5-(furan-2-yl)-3-(1-(3-methyloxetane-3-carbonyl)piperidin-3-yl)imidazo[1,5-a]pyrazin-1-yl)-N-(4-(trifluoromethyl)pyridin-2-yl)benzamide], for which the EC50 is under 10 nM.
On to `Nc1nccn2c(N3CCCC(C(=O)N[C@H]4CCOC4)C3)nc(-c3ccc(C(=O)Nc4cc(C(F)(F)F)ccn4)cc3)c12` (stereo partly drawn) [Example 237, 1-(8-amino-1-(4-(4-(trifluoromethyl)pyridin-2-ylcarbamoyl)phenyl)imidazo[1,5-a]pyrazin-3-yl)-N-((S)-tetrahydrofuran-3-yl)piperidine-3-carboxamide, TFA salt], for which the EC50 is under 10 nM.
On to `COCCC(=O)N1CCC[C@@H](c2nc(-c3ccc(C(=O)Nc4cc(C(F)(F)F)ccn4)cc3)c3c(N)ncc(/C=C/c4ccccc4)n23)C1` [Example 310, (R,E)-4-(8-amino-3-(1-(3-methoxypropanoyl)piperidin-3-yl)-5-styrylimidazo[1,5-a]pyrazin-1-yl)-N-(4-(trifluoromethyl)pyridin-2-yl)benzamide], for which the EC50 was under 10 nM.
Consider `COCCC(=O)N1CCC[C@@H](c2nc(-c3ccc(C(=O)Nc4ccccn4)cc3F)c3c(N)nccn23)C1` [Example 284, 4-(8-amino-3-((R)-1-(3-methoxypropanoyl)piperidin-3-yl)imidazo[1,5-a]pyrazin-1-yl)-3-fluoro-N-(pyridin-2-yl)benzamide, TFA salt], for which the EC50 is under 10 nM.
On the same count and under the same terms, the same measure for `CCNC(=O)N1C[C@H](c2nc(-c3ccc(C(=O)Nc4cc(C(F)(F)F)ccn4)cc3)c3c(N)nccn23)CC[C@@H]1C` (relative stereo) [Example 201, (cis)-5-(8-amino-1-(4-(4-(trifluoromethyl)pyridin-2-ylcarbamoyl)phenyl)imidazo [1,5-a]pyrazin-3-yl)-N-ethyl-2-methylpiperidine-1-carboxamide, TFA salt]: under 10 nM; for `CSCCNC(=O)C1CCCN(c2nc(-c3ccc(C(=O)Nc4cc(C(F)(F)F)ccn4)cc3)c3c(N)nccn23)C1` (stereo not shown) [Example 239, 1-(8-amino-1-(4-(4-(trifluoromethyl)pyridin-2-ylcarbamoyl)phenyl)imidazo[1,5-a]pyrazin-3-yl)-N-(2-(methylthio)ethyl)piperidine-3-carboxamide, TFA salt]: under 10 nM; for `Nc1nccn2c([C@@H]3C[C@H](O)CN(C(=O)C4CC4)C3)nc(-c3ccc(C(=O)Nc4cc(C(F)(F)F)ccn4)cc3)c12` (relative stereo) [Example 180, 4-(8-amino-3-((cis)-1-(cyclopropanecarbonyl)-5-hydroxypiperidin-3-yl)imidazo[1,5-a]pyrazin-1-yl)-N-(4-(trifluoromethyl)pyridin-2-yl)benzamide]: under 10 nM.

For the origin of these results see patent publication US9718828B2 (MERCK SHARP & DOHME CORP., priority 2011, dated 2017).
